Laboratory results as given in paper PMC9133015 (Nature Communications, 2022).
Several values for one entry are separate records, joined by “and”; a condition that tells them apart may be missing. Equal values may be shown once. Read-outs that look alike come from different tables or passages of the source.

Columns and labels:
Assay in all cases: Kinase inhibitor specificity profiling (Reaction Biology Corporation)
Format in all cases: biochemical
Set-up in all cases: % Enzyme Activity (relative to DMSO controls): concentration or dose not given beside the values
[1] = target: T1, panel of 370 protein kinases (Homo sapiens, UniProt O15530); settings: 2 h, kinase PDK1/PDPK1; read-out: % Enzyme Activity (relative to DMSO controls)
T1 construct: purchased Reaction Biology Corporation (assay service)

[2] = target: T2, panel of 370 protein kinases (Homo sapiens, UniProt O60285); settings: kinase ARK5/NUAK1
T2 construct: purchased Reaction Biology Corporation (assay service)
T2 sequence (O60285 whole entry): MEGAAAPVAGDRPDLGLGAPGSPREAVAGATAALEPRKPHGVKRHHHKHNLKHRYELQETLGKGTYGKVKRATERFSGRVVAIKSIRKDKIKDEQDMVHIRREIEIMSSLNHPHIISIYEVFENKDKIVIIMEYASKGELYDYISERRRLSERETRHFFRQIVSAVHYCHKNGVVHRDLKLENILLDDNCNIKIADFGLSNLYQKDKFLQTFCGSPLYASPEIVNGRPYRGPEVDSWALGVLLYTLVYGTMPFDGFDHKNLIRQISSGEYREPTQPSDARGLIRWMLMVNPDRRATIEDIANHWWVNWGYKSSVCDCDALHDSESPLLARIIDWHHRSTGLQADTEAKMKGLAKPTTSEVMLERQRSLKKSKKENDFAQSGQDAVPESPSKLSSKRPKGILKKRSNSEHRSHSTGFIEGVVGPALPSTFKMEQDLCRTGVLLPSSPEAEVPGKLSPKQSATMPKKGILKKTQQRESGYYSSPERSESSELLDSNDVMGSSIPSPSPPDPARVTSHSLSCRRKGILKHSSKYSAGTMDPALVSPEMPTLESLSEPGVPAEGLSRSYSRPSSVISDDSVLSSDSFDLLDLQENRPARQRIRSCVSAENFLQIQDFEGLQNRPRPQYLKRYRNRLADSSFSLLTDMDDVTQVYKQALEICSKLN

[3] = target: T3, panel of 370 protein kinases (Homo sapiens, UniProt P06493); settings: 2 h, read-out: % Enzyme Activity (relative to DMSO controls)
T3 construct: purchased Reaction Biology Corporation (assay service)
T3 sequence (P06493 whole entry): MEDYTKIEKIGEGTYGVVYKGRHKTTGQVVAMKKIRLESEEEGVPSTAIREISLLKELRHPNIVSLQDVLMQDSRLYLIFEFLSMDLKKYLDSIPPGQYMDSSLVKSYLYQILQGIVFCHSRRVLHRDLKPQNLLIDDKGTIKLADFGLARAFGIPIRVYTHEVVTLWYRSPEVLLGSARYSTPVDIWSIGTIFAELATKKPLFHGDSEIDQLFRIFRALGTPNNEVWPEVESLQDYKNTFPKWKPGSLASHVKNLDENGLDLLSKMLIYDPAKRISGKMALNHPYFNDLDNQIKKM

[4] = target: T4, panel of 370 protein kinases (Homo sapiens, UniProt P07333); settings: 2 h, kinase FMS; read-out: % Enzyme Activity (relative to DMSO controls)
T4 construct: purchased Reaction Biology Corporation (assay service)

[5] = target: T5, panel of 370 protein kinases (Homo sapiens, UniProt P07949); settings: 2 h, kinase RET; read-out: % Enzyme Activity (relative to DMSO controls)
T5 construct: purchased Reaction Biology Corporation (assay service)
T5 sequence (P07949 29-1114): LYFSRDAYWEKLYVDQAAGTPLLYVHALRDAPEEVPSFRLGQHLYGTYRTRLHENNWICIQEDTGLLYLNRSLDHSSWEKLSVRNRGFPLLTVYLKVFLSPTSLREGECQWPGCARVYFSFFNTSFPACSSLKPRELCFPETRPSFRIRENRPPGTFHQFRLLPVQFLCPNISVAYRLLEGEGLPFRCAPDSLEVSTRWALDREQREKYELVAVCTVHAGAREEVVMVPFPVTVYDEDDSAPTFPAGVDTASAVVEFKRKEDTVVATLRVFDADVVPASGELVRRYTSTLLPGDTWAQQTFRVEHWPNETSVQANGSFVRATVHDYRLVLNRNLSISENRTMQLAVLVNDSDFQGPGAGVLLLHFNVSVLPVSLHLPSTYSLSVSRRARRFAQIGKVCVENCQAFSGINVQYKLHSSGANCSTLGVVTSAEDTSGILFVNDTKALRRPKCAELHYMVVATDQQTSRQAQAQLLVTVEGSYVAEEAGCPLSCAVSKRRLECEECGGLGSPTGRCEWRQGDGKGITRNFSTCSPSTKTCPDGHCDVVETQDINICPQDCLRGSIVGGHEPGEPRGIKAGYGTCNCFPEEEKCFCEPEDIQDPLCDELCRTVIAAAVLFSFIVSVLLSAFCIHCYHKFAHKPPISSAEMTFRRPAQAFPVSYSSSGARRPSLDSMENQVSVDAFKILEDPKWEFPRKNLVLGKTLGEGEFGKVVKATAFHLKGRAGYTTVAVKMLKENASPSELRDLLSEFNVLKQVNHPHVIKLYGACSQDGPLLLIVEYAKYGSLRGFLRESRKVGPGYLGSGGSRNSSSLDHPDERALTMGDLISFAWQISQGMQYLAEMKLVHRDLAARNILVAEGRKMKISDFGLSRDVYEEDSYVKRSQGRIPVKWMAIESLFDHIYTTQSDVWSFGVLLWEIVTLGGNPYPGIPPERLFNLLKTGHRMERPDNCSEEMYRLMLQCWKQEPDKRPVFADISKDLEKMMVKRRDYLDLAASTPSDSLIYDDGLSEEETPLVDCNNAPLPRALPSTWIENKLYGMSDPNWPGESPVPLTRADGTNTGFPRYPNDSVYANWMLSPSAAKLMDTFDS

[6] = target: T6, panel of 370 protein kinases (Homo sapiens, UniProt P08922); settings: 2 h, kinase ROS/ROS1; read-out: % Enzyme Activity (relative to DMSO controls)
T6 construct: purchased Reaction Biology Corporation (assay service)

[7] = target: T7, panel of 370 protein kinases (Homo sapiens, UniProt P09619); settings: 2 h, kinase PDGFRb; read-out: % Enzyme Activity (relative to DMSO controls)
T7 construct: purchased Reaction Biology Corporation (assay service)

[8] = target: T8, panel of 370 protein kinases (Homo sapiens, UniProt P22455); settings: 2 h, kinase FGFR4; read-out: % Enzyme Activity (relative to DMSO controls)
T8 construct: purchased Reaction Biology Corporation (assay service)
T8 sequence (P22455 22-802): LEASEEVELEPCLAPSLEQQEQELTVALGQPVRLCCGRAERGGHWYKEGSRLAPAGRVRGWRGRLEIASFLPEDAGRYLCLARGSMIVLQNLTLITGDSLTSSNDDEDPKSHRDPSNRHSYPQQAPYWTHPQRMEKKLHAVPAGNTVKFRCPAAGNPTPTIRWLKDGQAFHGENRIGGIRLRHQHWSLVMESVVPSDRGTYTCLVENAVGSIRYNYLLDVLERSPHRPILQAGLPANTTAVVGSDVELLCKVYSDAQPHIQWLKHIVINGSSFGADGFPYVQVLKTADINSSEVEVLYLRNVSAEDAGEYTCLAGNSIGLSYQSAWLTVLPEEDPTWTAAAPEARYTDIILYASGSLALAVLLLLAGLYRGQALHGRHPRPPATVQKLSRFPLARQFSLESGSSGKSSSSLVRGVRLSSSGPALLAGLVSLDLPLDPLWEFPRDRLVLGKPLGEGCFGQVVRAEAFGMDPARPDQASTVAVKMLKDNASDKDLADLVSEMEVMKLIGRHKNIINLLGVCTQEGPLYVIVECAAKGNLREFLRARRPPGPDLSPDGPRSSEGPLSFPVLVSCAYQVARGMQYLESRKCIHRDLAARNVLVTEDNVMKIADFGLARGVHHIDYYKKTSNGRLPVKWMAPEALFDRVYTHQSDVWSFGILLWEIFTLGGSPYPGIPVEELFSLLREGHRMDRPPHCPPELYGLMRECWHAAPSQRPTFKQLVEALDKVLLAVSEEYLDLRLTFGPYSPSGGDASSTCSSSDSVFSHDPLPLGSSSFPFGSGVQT

[9] = target: T9, panel of 370 protein kinases (Homo sapiens, UniProt P28482); settings: 2 h, kinase ERK2/MAPK1; read-out: % Enzyme Activity (relative to DMSO controls)
T9 construct: purchased Reaction Biology Corporation (assay service)

[10] = target: T10, panel of 370 protein kinases (Homo sapiens, UniProt P43405); settings: kinase SYK
T10 construct: purchased Reaction Biology Corporation (assay service)

[11] = target: T11, panel of 370 protein kinases (Homo sapiens, UniProt P45983); settings: kinase JNK1
T11 construct: purchased Reaction Biology Corporation (assay service)
T11 sequence (P45983 whole entry): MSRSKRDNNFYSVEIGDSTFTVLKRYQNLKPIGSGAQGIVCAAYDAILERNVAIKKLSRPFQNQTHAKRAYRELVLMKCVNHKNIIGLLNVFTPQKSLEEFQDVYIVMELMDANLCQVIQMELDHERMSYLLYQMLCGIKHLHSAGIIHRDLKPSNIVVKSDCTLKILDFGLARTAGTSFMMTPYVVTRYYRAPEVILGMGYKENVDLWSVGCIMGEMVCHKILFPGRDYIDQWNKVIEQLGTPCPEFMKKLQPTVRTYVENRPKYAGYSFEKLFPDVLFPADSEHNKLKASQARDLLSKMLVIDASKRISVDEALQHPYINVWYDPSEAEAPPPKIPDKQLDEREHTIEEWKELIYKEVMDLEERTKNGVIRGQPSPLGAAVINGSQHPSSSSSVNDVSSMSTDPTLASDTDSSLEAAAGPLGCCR

[12] = target: T12, panel of 370 protein kinases (Homo sapiens, UniProt P49137); settings: 2 h, kinase MAPKAPK2; read-out: % Enzyme Activity (relative to DMSO controls)
T12 construct: purchased Reaction Biology Corporation (assay service)

[13] = target: T13, panel of 370 protein kinases (Homo sapiens, UniProt P53350); settings: 2 h, kinase PLK1; read-out: % Enzyme Activity (relative to DMSO controls)
T13 construct: purchased Reaction Biology Corporation (assay service)

[14] = target: T14, panel of 370 protein kinases (Homo sapiens, UniProt P57059); settings: kinase SIK1
T14 construct: purchased Reaction Biology Corporation (assay service)
T14 sequence (P57059 whole entry): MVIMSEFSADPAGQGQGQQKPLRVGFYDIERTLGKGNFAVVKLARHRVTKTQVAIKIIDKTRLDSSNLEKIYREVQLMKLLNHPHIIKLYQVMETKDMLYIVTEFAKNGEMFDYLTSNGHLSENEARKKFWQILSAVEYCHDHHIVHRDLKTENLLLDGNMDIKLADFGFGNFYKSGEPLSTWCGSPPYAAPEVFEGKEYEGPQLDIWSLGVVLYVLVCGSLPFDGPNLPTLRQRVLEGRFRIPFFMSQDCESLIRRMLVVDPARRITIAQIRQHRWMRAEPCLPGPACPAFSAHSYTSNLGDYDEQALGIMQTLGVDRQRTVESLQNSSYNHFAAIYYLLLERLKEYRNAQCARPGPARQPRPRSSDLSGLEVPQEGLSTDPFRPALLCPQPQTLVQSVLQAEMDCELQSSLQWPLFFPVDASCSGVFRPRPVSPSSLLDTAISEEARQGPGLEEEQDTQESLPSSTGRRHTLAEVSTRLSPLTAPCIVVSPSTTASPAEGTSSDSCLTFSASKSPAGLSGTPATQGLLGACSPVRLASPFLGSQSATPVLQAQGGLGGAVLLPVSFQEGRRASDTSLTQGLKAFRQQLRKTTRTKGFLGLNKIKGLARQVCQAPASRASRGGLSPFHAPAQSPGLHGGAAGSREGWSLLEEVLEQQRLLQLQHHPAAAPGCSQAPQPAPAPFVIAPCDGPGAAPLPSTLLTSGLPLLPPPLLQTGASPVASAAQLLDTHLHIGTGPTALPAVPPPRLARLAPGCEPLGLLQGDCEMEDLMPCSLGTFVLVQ

[15] = target: T15, panel of 370 protein kinases (Homo sapiens, UniProt Q13464); settings: 2 h, kinase ROCK1; read-out: % Enzyme Activity (relative to DMSO controls)
T15 construct: purchased Reaction Biology Corporation (assay service)

[16] = target: T16, panel of 370 protein kinases (Homo sapiens, UniProt Q13470); settings: 2 h, kinase TNK1; read-out: % Enzyme Activity (relative to DMSO controls)
T16 construct: purchased Reaction Biology Corporation (assay service)

[17] = target: T17, panel of 370 protein kinases (Homo sapiens, UniProt Q13627); settings: 2 h, kinase DYRK1/DYRK1A; read-out: % Enzyme Activity (relative to DMSO controls)
T17 construct: purchased Reaction Biology Corporation (assay service)

[18] = target: T18, panel of 370 protein kinases (Homo sapiens, UniProt Q13882); settings: 2 h, kinase BRK; read-out: % Enzyme Activity (relative to DMSO controls)
T18 construct: purchased Reaction Biology Corporation (assay service)

[19] = target: T19, panel of 370 protein kinases (Homo sapiens, UniProt Q6XUX3); settings: 2 h, kinase RIPK5; read-out: % Enzyme Activity (relative to DMSO controls)
T19 construct: purchased Reaction Biology Corporation (assay service)

[20] = target: T20, panel of 370 protein kinases (Homo sapiens, UniProt Q96PF2); settings: 2 h, kinase TSSK2; read-out: % Enzyme Activity (relative to DMSO controls)
T20 construct: purchased Reaction Biology Corporation (assay service)

[21] = target: T21, panel of 370 protein kinases (Homo sapiens, UniProt Q9H0K1); settings: 2 h, kinase SIK2; read-out: % Enzyme Activity (relative to DMSO controls)
T21 construct: purchased Reaction Biology Corporation (assay service)
T21 sequence (Q9H0K1 whole entry): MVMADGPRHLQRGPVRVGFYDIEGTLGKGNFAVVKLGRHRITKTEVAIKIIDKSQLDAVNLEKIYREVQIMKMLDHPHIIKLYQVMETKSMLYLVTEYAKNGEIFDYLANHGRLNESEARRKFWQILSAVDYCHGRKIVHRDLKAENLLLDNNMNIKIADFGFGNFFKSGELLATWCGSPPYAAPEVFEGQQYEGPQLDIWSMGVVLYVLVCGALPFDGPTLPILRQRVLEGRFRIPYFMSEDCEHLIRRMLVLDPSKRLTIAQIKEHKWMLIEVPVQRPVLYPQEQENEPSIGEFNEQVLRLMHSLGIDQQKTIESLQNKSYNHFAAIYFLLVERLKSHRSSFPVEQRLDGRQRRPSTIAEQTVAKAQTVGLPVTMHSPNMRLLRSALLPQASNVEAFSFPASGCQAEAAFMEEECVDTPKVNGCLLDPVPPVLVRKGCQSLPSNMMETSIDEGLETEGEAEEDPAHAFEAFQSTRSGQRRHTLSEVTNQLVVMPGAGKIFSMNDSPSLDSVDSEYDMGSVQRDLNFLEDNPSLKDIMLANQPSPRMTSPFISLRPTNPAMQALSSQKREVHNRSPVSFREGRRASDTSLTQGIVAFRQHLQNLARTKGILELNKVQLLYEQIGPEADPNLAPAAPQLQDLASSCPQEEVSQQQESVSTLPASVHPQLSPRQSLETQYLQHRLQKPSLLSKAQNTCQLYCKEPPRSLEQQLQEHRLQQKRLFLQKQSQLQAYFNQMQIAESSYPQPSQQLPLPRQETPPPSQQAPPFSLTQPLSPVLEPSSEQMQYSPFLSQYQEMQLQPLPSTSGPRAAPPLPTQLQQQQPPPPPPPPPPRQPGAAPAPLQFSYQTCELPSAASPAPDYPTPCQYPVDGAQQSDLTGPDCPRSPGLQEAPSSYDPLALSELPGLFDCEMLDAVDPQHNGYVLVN

[22] = target: T22, panel of 370 protein kinases (Homo sapiens, UniProt Q9P286); settings: 2 h, kinase PAK5; read-out: % Enzyme Activity (relative to DMSO controls)
T22 construct: purchased Reaction Biology Corporation (assay service)

With CCN1CCN(C(=O)c2ccc(Nc3ncc(F)c(-c4ccc5nc(N(C)C)sc5c4)n3)nc2)CC1 [YK-2-69] the remaining activity at 1 µM [1] was 100%, the “% Enzyme Activity (relative to DMSO controls)” value [2] was 87.08% and 86.46% and the remaining activity at 1 µM ([3]; kinase CDK1/cyclin A) was 116%. It also gave a remaining activity at 1 µM ([3]; kinase CDK1/cyclin B) of 119%, a remaining activity at 1 µM ([3]; kinase CDK1/cyclin E) of 103% and a remaining activity at 1 µM [4] of 94.5%. It also gave a remaining activity at 1 µM [5] of 88.1%, a remaining activity at 1 µM [6] of 79.3% and a remaining activity at 1 µM [7] of 97.5%. For the same molecule, the remaining activity at 1 µM [8] was 88.9%, the remaining activity at 1 µM [9] was 101% and the “% Enzyme Activity (relative to DMSO controls)” value [10] was 98.88% and 95.73%. For the same molecule, the “% Enzyme Activity (relative to DMSO controls)” value [11] was 71.84% and 70.88%, the remaining activity at 1 µM [12] was 83.2% and the remaining activity at 1 µM [13] was 115%. The “% Enzyme Activity (relative to DMSO controls)” value [14] was 99.48% and 98.60%, the remaining activity at 1 µM [15] was 92.8% and the remaining activity at 1 µM [16] was 95.3%. The remaining activity at 1 µM [17] was 61.3%, the remaining activity at 1 µM [18] was 97.7% and the remaining activity at 1 µM [19] was 111%. The remaining activity at 1 µM [20] was 96.7%, the remaining activity at 1 µM [21] was 95.6% and the remaining activity at 1 µM [22] was 101%.
